Data as given in patent US7507717B2 (Xenome Ltd., priority 2002, dated 2009).
Residues, ends and D or L forms follow the SMILES beside them.

These compounds were tested against T1, human noradrenaline transporter (hNET) (Homo sapiens, UniProt P23975) (assay: biochemical). Conditions: not given.
T1 construct: expressed in transfected cells; host or cells: COS-7 cells (ATCC), transient transfection with metafectene
T1 sequence (P23975 whole entry): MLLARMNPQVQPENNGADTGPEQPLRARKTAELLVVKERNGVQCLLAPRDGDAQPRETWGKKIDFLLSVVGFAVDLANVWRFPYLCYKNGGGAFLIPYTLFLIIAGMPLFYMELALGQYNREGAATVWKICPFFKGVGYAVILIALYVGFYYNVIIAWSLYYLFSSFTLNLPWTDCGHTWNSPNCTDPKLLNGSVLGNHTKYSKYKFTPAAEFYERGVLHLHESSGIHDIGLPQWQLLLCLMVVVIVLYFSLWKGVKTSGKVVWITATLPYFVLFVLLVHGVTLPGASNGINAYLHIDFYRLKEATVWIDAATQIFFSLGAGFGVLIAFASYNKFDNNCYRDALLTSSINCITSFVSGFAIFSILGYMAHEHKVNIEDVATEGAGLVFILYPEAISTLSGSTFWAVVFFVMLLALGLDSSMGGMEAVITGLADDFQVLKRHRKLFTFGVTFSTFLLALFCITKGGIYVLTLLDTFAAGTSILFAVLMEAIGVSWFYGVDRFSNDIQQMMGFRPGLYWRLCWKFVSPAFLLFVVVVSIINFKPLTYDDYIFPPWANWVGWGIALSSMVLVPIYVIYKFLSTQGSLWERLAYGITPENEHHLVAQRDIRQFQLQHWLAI
Type: binding
YNGVCCGYKDCHPC [compound 209] was tested, and the “Av IC50 Displacement of 3H-nisoxetine from hNET” value was −2.00. YNGVCCGYKLCEPC [compound 210] was tested, and the “Av IC50 Displacement of 3H-nisoxetine from hNET” value was −2.00.

Same assay, conditions: Av IC50 Displacement of 3H-nisoxetine from hNET
Work on CC(C)C[C@@H]1NC(=O)[C@H](CCCCN)NC(=O)[C@H](Cc2ccc(O)cc2)NC(=O)CNC(=O)[C@@H]2CSSC[C@H](NC1=O)C(=O)N[C@@H](Cc1c[nH]c3ccccc13)C(=O)N1CCC[C@H]1C(=O)N[C@H](C(N)=O)CSSC[C@H](NC(=O)[C@@H](NC(=O)[C@H](CC(=O)O)NC(=O)[C@H](CCCCN)NC(=O)[C@@H](N)Cc1c[nH]c3ccccc13)C(C)C)C(=O)N2 [compound 92] (HELM PEPTIDE1{W.K.D.V.C.C.G.Y.K.L.C.W.P.C.[am]}$PEPTIDE1,PEPTIDE1,5:R3-14:R3|PEPTIDE1,PEPTIDE1,6:R3-11:R3$$$V2.0) yielded an IC50 of 407 nM. Work on CC(C)C[C@H](NC(=O)[C@H](CC(=O)O)NC(=O)[C@H](CCCCN)NC(=O)[C@@H](N)Cc1c[nH]c2ccccc12)C(=O)N[C@H]1CSSC[C@@H](C(N)=O)NC(=O)[C@@H]2CCCN2C(=O)[C@H](Cc2c[nH]cn2)NC(=O)[C@@H]2CSSC[C@H](NC1=O)C(=O)NCC(=O)N[C@@H](Cc1ccc(O)cc1)C(=O)N[C@@H](CCCCN)C(=O)N[C@@H](CC(C)C)C(=O)N2 [compound 85] (HELM PEPTIDE1{W.K.D.L.C.C.G.Y.K.L.C.H.P.C.[am]}$PEPTIDE1,PEPTIDE1,5:R3-14:R3|PEPTIDE1,PEPTIDE1,6:R3-11:R3$$$V2.0) yielded an IC50 of 309 nM. Work on CC(C)C[C@@H]1NC(=O)[C@H](CCCCN)NC(=O)[C@H](Cc2ccc(O)cc2)NC(=O)CNC(=O)[C@@H]2CSSC[C@H](NC1=O)C(=O)N[C@H](C(N)=O)CSSC[C@H](NC(=O)[C@@H](N)C(C)C)C(=O)N2 [compound 148] (HELM PEPTIDE1{V.C.C.G.Y.K.L.C.C.[am]}$PEPTIDE1,PEPTIDE1,2:R3-9:R3|PEPTIDE1,PEPTIDE1,3:R3-8:R3$$$V2.0) yielded an IC50 of 3160 nM. CC(C)C[C@@H]1NC(=O)[C@H](CCCCN)NC(=O)[C@H](Cc2ccc(O)cc2)NC(=O)CNC(=O)[C@@H]2CSSC[C@H](NC1=O)C(=O)N[C@@H](CCCNC(=N)N)C(=O)N1CCC[C@H]1C(=O)N[C@H](C(N)=O)CSSC[C@H](NC(=O)[C@@H](NC(=O)CNC(=O)[C@H](CC(N)=O)NC(=O)[C@@H](N)Cc1ccc(O)cc1)C(C)C)C(=O)N2 [compound 89] showed an IC50 of 339 nM. With CC(C)C[C@@H]1NC(=O)[C@H](CCCCN)NC(=O)[C@H](CCCCN)NC(=O)CNC(=O)[C@@H]2CSSC[C@H](NC1=O)C(=O)N[C@@H](Cc1c[nH]cn1)C(=O)N1CCC[C@H]1C(=O)N[C@H](C(N)=O)CSSC[C@H](NC(=O)[C@@H](NC(=O)CNC(=O)[C@H](CC(N)=O)NC(=O)[C@@H](N)Cc1ccc(O)cc1)C(C)C)C(=O)N2 [compound 201] (HELM PEPTIDE1{Y.N.G.V.C.C.G.K.K.L.C.H.P.C.[am]}$PEPTIDE1,PEPTIDE1,5:R3-14:R3|PEPTIDE1,PEPTIDE1,6:R3-11:R3$$$V2.0) the IC50 was 437000 nM. With CC(C)C[C@@H]1NC(=O)[C@H](CCCCN)NC(=O)[C@H](Cc2ccc(O)cc2)NC(=O)CNC(=O)[C@@H]2CSSC[C@H](NC1=O)C(=O)N[C@@H](Cc1c[nH]c3ccccc13)C(=O)N1CCC[C@H]1C(=O)N[C@H](C(N)=O)CSSC[C@H](NC(=O)[C@@H](NC(=O)CNC(=O)[C@H](CC(N)=O)NC(=O)[C@@H](N)Cc1ccc(O)cc1)C(C)C)C(=O)N2 [compound 91] the IC50 was 389 nM. Compound CC(C)C[C@@H]1NC(=O)[C@H](CCCCN)NC(=O)[C@H](Cc2ccc(O)cc2)NC(=O)CNC(=O)[C@@H]2CSSC[C@H](NC1=O)C(=O)N[C@@H](Cc1c[nH]cn1)C(=O)N1CCC[C@H]1C(=O)N[C@H](C(N)=O)CSSC[C@H](NC(=O)[C@@H](NC(=O)[C@H](CCCNC(=N)N)NC(=O)[C@H](CC(N)=O)NC(=O)[C@@H](N)Cc1ccc(O)cc1)C(C)C)C(=O)N2 [compound 118] (HELM PEPTIDE1{Y.N.R.V.C.C.G.Y.K.L.C.H.P.C.[am]}$PEPTIDE1,PEPTIDE1,5:R3-14:R3|PEPTIDE1,PEPTIDE1,6:R3-11:R3$$$V2.0) has an IC50 of 1170 nM. CC(C)C[C@@H]1NC(=O)[C@H](Cc2ccccc2)NC(=O)[C@H](Cc2ccc(O)cc2)NC(=O)CNC(=O)[C@@H]2CSSC[C@H](NC1=O)C(=O)N[C@@H](Cc1c[nH]cn1)C(=O)N1CCC[C@H]1C(=O)N[C@H](C(N)=O)CSSC[C@H](NC(=O)[C@@H](NC(=O)CNC(=O)[C@H](CC(N)=O)NC(=O)[C@@H](N)Cc1ccc(O)cc1)C(C)C)C(=O)N2 [compound 179] (HELM PEPTIDE1{Y.N.G.V.C.C.G.Y.F.L.C.H.P.C.[am]}$PEPTIDE1,PEPTIDE1,5:R3-14:R3|PEPTIDE1,PEPTIDE1,6:R3-11:R3$$$V2.0) was tested, and the IC50 was 25100 nM.

What follows are compounds tested against T1, human noradrenaline transporter (hNET) (assay: cell-based). Conditions: not given.
CC(C)C[C@@H]1NC(=O)[C@H](CCCCN)NC(=O)[C@H](Cc2ccc(O)cc2)NC(=O)CNC(=O)[C@@H]2CSSC[C@H](NC1=O)C(=O)N[C@@H](Cc1c[nH]c3ccccc13)C(=O)N1CCC[C@H]1C(=O)N[C@H](C(N)=O)CSSC[C@H](NC(=O)[C@@H](NC(=O)[C@H](CC(=O)O)NC(=O)[C@H](CCCCN)NC(=O)[C@@H](N)Cc1c[nH]c3ccccc13)C(C)C)C(=O)N2 [compound 92] (HELM PEPTIDE1{W.K.D.V.C.C.G.Y.K.L.C.W.P.C.[am]}$PEPTIDE1,PEPTIDE1,5:R3-14:R3|PEPTIDE1,PEPTIDE1,6:R3-11:R3$$$V2.0) gave an IC50 of 36.3 nM. For CC(C)C[C@H](NC(=O)[C@H](CC(=O)O)NC(=O)[C@H](CCCCN)NC(=O)[C@@H](N)Cc1c[nH]c2ccccc12)C(=O)N[C@H]1CSSC[C@@H](C(N)=O)NC(=O)[C@@H]2CCCN2C(=O)[C@H](Cc2c[nH]cn2)NC(=O)[C@@H]2CSSC[C@H](NC1=O)C(=O)NCC(=O)N[C@@H](Cc1ccc(O)cc1)C(=O)N[C@@H](CCCCN)C(=O)N[C@@H](CC(C)C)C(=O)N2 [compound 85] (HELM PEPTIDE1{W.K.D.L.C.C.G.Y.K.L.C.H.P.C.[am]}$PEPTIDE1,PEPTIDE1,5:R3-14:R3|PEPTIDE1,PEPTIDE1,6:R3-11:R3$$$V2.0), the IC50 was 89.1 nM. CC(C)C[C@@H]1NC(=O)[C@H](CCCCN)NC(=O)[C@H](Cc2ccc(O)cc2)NC(=O)CNC(=O)[C@@H]2CSSC[C@H](NC1=O)C(=O)N[C@H](C(N)=O)CSSC[C@H](NC(=O)[C@@H](N)C(C)C)C(=O)N2 [compound 148] (HELM PEPTIDE1{V.C.C.G.Y.K.L.C.C.[am]}$PEPTIDE1,PEPTIDE1,2:R3-9:R3|PEPTIDE1,PEPTIDE1,3:R3-8:R3$$$V2.0) gave an IC50 of 347 nM. CC(C)C[C@@H]1NC(=O)[C@H](CCCCN)NC(=O)[C@H](Cc2ccc(O)cc2)NC(=O)CNC(=O)[C@@H]2CSSC[C@H](NC1=O)C(=O)N[C@@H](CCCNC(=N)N)C(=O)N1CCC[C@H]1C(=O)N[C@H](C(N)=O)CSSC[C@H](NC(=O)[C@@H](NC(=O)CNC(=O)[C@H](CC(N)=O)NC(=O)[C@@H](N)Cc1ccc(O)cc1)C(C)C)C(=O)N2 [compound 89] gave an IC50 of 112 nM.
